This note sets out measurements from PubChem BioAssay AID179 (DTP/NCI, 2004).

The source made the active and inactive calls.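 How the source made its calls: active means compounds giving half or more protection of infected cells from virus-caused growth loss, again on retest; inactive means the rest.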

This assay has as its system CEM cells HIV-1 protection, formazan growth assay. Nature of the assay: NCI AIDS Antiviral Assay. The following applies: for IC50: measured here: growth of uninfected CEM cells. An outline of the steps:
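Protection of CEM cells against HIV-1 measured as cell growth via soluble formazan read-out, with five concentrations tested on both infected and uninfected cells; failure to protect may reflect toxicity.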

In general, EC50 refers to the midpoint of the concentration-response curve. For orientation: IC50 means the midpoint of a concentration-inhibition curve. A low value points to greater potency. `N#CCCN(CCC#N)c1ccc(C(Sc2ccccc2)C(NC(=O)c2cc([N+](=O)[O-])ccc2Cl)C(=O)Sc2ccccc2)cc1` (stereo not given): the EC50 was more than 10.7 µM and the IC50 was found to be 3.55 µM. On the same counts, the results for `CC1CN(C(=O)OCC23COC4(C)CCC(C)(OC2)N34)CC(C)O1` (stereo not given) are more than 200 µM and more than 200 µM. `NCC1OC(OC2C(N)CC(N)C(O)C2O)C(NC(=O)c2ccccc2)C(O)C1O` (stereo not given): the outcome was inactive.

Consider `[N-]=[N+]=NC1C(O)C(O)C(O)C(O)C1O` (stereo not given), for which the EC50 is more than 603 µM and the IC50 is more than 603 µM. Regarding `Cc1c2[nH]c(c1CCC(=O)O)/C=c1\[n-]/c(c(C)c1CCC(=O)O)=C\c1[n-]c(c(C)c1C(C)O)/C=c1\[nH]/c(c(C)c1C(C)O)=C\2.[Cl][Pt+2][Cl]` (stereo not given), the EC50 is more than 20.9 µM and the IC50 stood at 14.5 µM. With `COc1cc2c(cc1OC)C(CCc1ccc(Cl)cc1)N(C)CC2` (stereo not given), the EC50 is more than 200 µM and the IC50 stood at 91.2 µM. On to `c1c2c(cc3c1OCO3)C(c1onc3cc4c(cc13)OCO4)=NCC2`, for which the outcome was inactive. As for `C=C1CC2(CCOc3ccccc32)OC1=O` (stereo not given), the EC50 is more than 871 µM and the IC50 was found to be 4.37 µM. For `CSc1nnc2n1-c1ccccc1SCC2`, in that order: more than 1000 µM and 389 µM. For the molecule `CCN1CCC(O)(c2ccc(O)cc2)C(C(=O)c2ccc(O)cc2)C1` (stereo not given), the EC50 was more than 16.2 µM and the IC50 was more than 16.2 µM.

In the case of `Nc1c2c([nH]c(=O)c1N=O)CCC2`, the EC50 was more than 200 µM and the IC50 is more than 200 µM. Regarding `CC(C)N1C(C)[C@@H](c2ccccc2)O[P@@]1(=O)/C=C/C[C@H]1CC(=O)CCN1Cc1ccccc1` (stereo not given in full), the outcome was inactive. Regarding `O=c1c2ccccc2nc2[nH][nH]c(=S)n12`, the EC50 is more than 200 µM and the IC50 amounted to 195 µM.

`O=C1OC(=O)C2C3CCCCC3=C3CCCCC3C12` (stereo not given): the EC50 is more than 200 µM and the IC50 was more than 200 µM. With `NCS(=O)(=O)O`, the EC50 was more than 200 µM and the IC50 turned out to be 18.6 µM. Consider `O=C(CCCN1CC=C(n2c(=O)[nH]c3ccccc32)CC1)c1ccc(F)cc1`, for which the EC50 is more than 200 µM and the IC50 is 89.1 µM. On the same counts, the results for `Nc1nc2c(ccn2[C@H]2C=C[C@@H](CO)C2)c(=O)[nH]1` are more than 275 µM and more than 275 µM. For the molecule `CC(C)(C)c1cc(CCC(=O)Nc2ccc(Cl)cc2)nc(NC#N)n1`, the EC50 was more than 692 µM and the IC50 is more than 692 µM. `COc1ccc(C(=O)O)c2c(=O)c3ccccc3[nH]c12`: the outcome was inactive. As to `O=c1[nH]c(=O)n(C2CC(O)C(CO)O2)cc1NN=NCc1ccccc1` (stereo not given), the EC50 was more than 200 µM and the IC50 is more than 200 µM. On to `CC(C)N(O)C(=N)c1ccccc1`, for which the outcome was inactive. Regarding `N#CC12C3C4CC5C6C4C1C6C(O)(C53)N2Cc1ccccc1` (stereo not given), the EC50 is more than 447 µM and the IC50 came out at 257 µM. For the molecule `CC(=O)CC(O)(C(F)(F)Cl)C(F)(F)Cl`, the result was inactive. Regarding `O=C(O)/C(=C/c1ccc([N+](=O)[O-])cc1)c1ccccc1`, the EC50 is more than 490 µM and the IC50 came out at 95.5 µM. On the same counts, the results for `CN(C)/N=C1\CC(c2ccccc2)C(C#N)(C#N)C1(C#N)C#N` (stereo not given) are more than 200 µM and 5.62 µM. For the molecule `CC(C)(c1ccc(C=O)o1)c1ccc(C(C)(C)c2ccc(C=O)o2)o1`, the outcome was inactive. On to `CN(C)c1ccc(C2CC(c3ccc4ccccc4c3O)=NN2)cc1` (stereo not given), for which the EC50 was more than 200 µM and the IC50 stood at 60.3 µM. In the case of `OC/C=C/[C@H](OCc1ccccc1)[C@H](/C=C/CO)OCc1ccccc1`, the EC50 was more than 200 µM and the IC50 was 57.5 µM. On the same counts, the results for `COc1cc(C2C(Cl)C(=O)N2NC(=O)Cc2ccccc2)cc(Br)c1O` (stereo not given) are more than 30.9 µM and more than 30.9 µM. Regarding `COC(=O)C1(F)C(=O)NC(=O)NC1OC` (stereo not given), the EC50 is more than 1120 µM and the IC50 is 17.4 µM. On the same counts, the results for `Cc1nc2c(cc1C(=O)N/N=C/c1ccc([N+](=O)[O-])cc1)c(=O)n(C)c(=O)n2C` are more than 200 µM and more than 200 µM. Regarding `CC1=CC(=O)N2CCN=C2S1`, the EC50 is more than 200 µM and the IC50 is more than 200 µM. As for `COC1N(C2C=CC(CO)O2)C(=O)NC(=O)C1(C)Br` (stereo not given), the EC50 was 100 µM and the IC50 was found to be 129 µM. `CC(=O)Oc1ccccc1C(=O)/C=C/c1ccccc1`: the EC50 is more than 132 µM and the IC50 amounted to 12 µM. Take `COc1ccc(CCN2COc3ccc4ccc(=O)oc4c3C2)cc1OC`: the EC50 is more than 200 µM and the concentration for half-maximal inhibition (IC50) is 67.6 µM. In the case of `Cc1ccc(/C=C2\CN(C)CC3C(c4ccc(C)cc4)=C(C#N)C(=O)NC23)cc1` (stereo not given), the EC50 is more than 200 µM and the IC50 is more than 200 µM. As to `COc1cc(Cc2nnc(Nc3ccccc3)[nH]c2=O)cc(OC)c1OC`, the EC50 is more than 257 µM and the IC50 was more than 257 µM.

As for `Cc1cc(S(=O)(=O)Nc2nnc3cc(C(F)(F)F)cc(C)n23)c(S)cc1Cl`, the EC50 was 50.1 µM and the IC50 came out at 132 µM.

On to `C#CCOC(=O)[C@@H](C)c1ccc2cc(OC)ccc2c1`, for which the EC50 is more than 200 µM and the IC50 is 47.9 µM. Turning to `CNc1cc([N+](=O)[O-])ccc1C(=O)N1CCC[C@H]1CO`, the EC50 is more than 200 µM and the IC50 is more than 200 µM. Regarding `C[C@@H]1C[C@H](C)S(=O)[C@H](C)S1` (stereo not given in full), the EC50 is more than 1410 µM and the IC50 was more than 1410 µM. Turning to `COC(=O)CSSCC(=O)OC`, the outcome was inactive. As for `Cn1c(=O)c2[nH]c(=O)c(C(CO)C(=O)c3ccccc3)nc2n(C)c1=O` (stereo not given), the EC50 was more than 200 µM and the 50% inhibitory concentration (IC50) was 9.55 µM. Turning to `NC(CS)C(=O)NCCNCCNc1ccc(NCCNCCNC(=O)C(N)CS)c2c1C(=O)c1c(O)ccc(O)c1C2=O` (stereo not given), the EC50 is more than 200 µM and the IC50 amounted to 13.5 µM.

`COc1cc(OC)c2ccc(=O)oc2c1`: the EC50 was more than 91.2 µM and the IC50 is more than 91.2 µM. Consider `COc1ccc(NC2Oc3cc4c(cc3C(c3cc(OC)c(O)c(OC)c3)C2C)OCO4)cc1` (stereo not given), for which the EC50 was more than 200 µM and the IC50 stood at 3.63 µM. With `Nc1nc(N)c2cc(Sc3ccc4nc(N)nc(N)c4c3)ccc2n1`, the EC50 is more than 0.2 µM and the IC50 is 0.0708 µM. `CC(=O)c1nc2ccccc2n1CC(=O)c1ccc([N+](=O)[O-])cc1`: the EC50 was more than 200 µM and the IC50 turned out to be 7.59 µM. Consider `CCNC(=O)N(CC)CN(CC)C(=O)NCC`, for which the EC50 is more than 182 µM and the IC50 came to 95.5 µM. With `Cc1cc(S(=O)(=O)Nc2nc3ccccc3c(=O)n2N)c(S)cc1Cl`, the EC50 was 40.7 µM and the IC50 came out at 77.6 µM. As for `O=C1C(CN2CCCC2)CCC1CN1CCCC1` (stereo not given), the outcome was inactive.

Regarding `CC(=O)OC1COC(n2c3ccccc3c3ccc4c5ccccc5[nH]c4c32)C(OC(C)=O)C1OC(C)=O` (stereo not given), the EC50 was more than 117 µM and the IC50 is 115 µM. On to `CN(C)c1ncnc2c1ncn2C1OC(CO)C(O)C1O` (stereo not given), for which the result was inactive. For the molecule `CCc1c2cc(OC)c(OC)cc2cc2c3cc(OC)c(OC)cc3cc[n+]12` (tested in a mixture with another compound), the EC50 was more than 234 µM and the IC50 was 33.9 µM.

`O=C(Nn1c(=S)[nH][nH]c1=S)c1ccccc1`: the EC50 is more than 200 µM and the IC50 is more than 200 µM.
